Assays:
[1] = tested on: a variety of test species; experiment: Pre-emergence herbicidal activity (glasshouse, sprayed one day after sowing, evaluated after 13 days); assay type: in vivo; parameters: key: 5=total damage to plant; 0=no damage to plant; details: application pre-emergence, rate 1000 g/Ha, scale 0-5
Procedure: Seeds of a variety of test species were sown in standard soil in pots. After cultivation for one day (pre-emergence) under controlled conditions in a glasshouse (at 24/16° C., day/night; 14 hours light; 65% humidity), the plants were sprayed with an aqueous spray solution derived from the formulation of the technical active ingredient in acetone/water (50:50) solution containing 0.5% Tween 20 (polyoxyethelyene sorbitan monolaurate, CAS RN 9005-64-5). The test plants were then grown in a glasshouse under controlled conditions (at 24/16° C., day/night; 14 hours light; 65% humidity) and watered twice daily. After 13 days, the test was evaluated (5=total damage to plant; 0=no damage to plant).

[2] = tested on: a variety of test species; experiment: Post-emergence herbicidal activity (glasshouse, sprayed after 8 days cultivation, evaluated after 13 days); assay type: in vivo; parameters: key: 5=total damage to plant; 0=no damage to plant; details: rate 1000 g/Ha, scale 0-5
Procedure: Seeds of a variety of test species were sown in standard soil in pots. After 8 days cultivation (post-emergence) under controlled conditions in a glasshouse (at 24/16° C., day/night; 14 hours light; 65% humidity), the plants were sprayed with an aqueous spray solution derived from the formulation of the technical active ingredient in acetone/water (50:50) solution containing 0.5% Tween 20 (polyoxyethelyene sorbitan monolaurate, CAS RN 9005-64-5). The test plants were then grown in a glasshouse under controlled conditions (at 24/16° C., day/night; 14 hours light; 65% humidity) and watered twice daily. After 13 days, the test was evaluated (5=total damage to plant; 0=no damage to plant).

## CC1=C(Br)C(=O)N(c2cc(C(C)(C)C)on2)C1O (stereo not drawn) [A1]
[1]
  Pre-emergence herbicidal damage score, ABUTH: 5
  Pre-emergence herbicidal damage score, ALOMY: 2
  Pre-emergence herbicidal damage score, AMARE: 5
  Pre-emergence herbicidal damage score, ECHCG: 4
  Pre-emergence herbicidal damage score, SETFA: 5
  Pre-emergence herbicidal damage score, ZEAMX: 1
[2]
  ABUTH (Abutilon theophrasti) damage score, application post-emergence: 5
  ALOMY (Alopecurus myosuroides) damage score, application post-emergence: 5
  AMARE (Amaranthus retroflexus) damage score, application post-emergence: 5
  ECHCG (Echinochloa crus-galli) damage score, application post-emergence: 5
  SETFA (Setaria faberi) damage score, application post-emergence: 5
  ZEAMX (Zea mays) damage score, application post-emergence: 4

## CC1=C(Br)C(=O)N(c2cc(C)on2)C1O (stereo not drawn) [A3]
[1]
  Pre-emergence herbicidal damage score, ABUTH: 5
  Pre-emergence herbicidal damage score, ALOMY: 3
  Pre-emergence herbicidal damage score, AMARE: 5
  Pre-emergence herbicidal damage score, ECHCG: 3
  Pre-emergence herbicidal damage score, SETFA: 5
  Pre-emergence herbicidal damage score, ZEAMX: 2
[2]
  ABUTH (Abutilon theophrasti) damage score, application post-emergence: 5
  ALOMY (Alopecurus myosuroides) damage score, application post-emergence: 4
  AMARE (Amaranthus retroflexus) damage score, application post-emergence: 5
  ECHCG (Echinochloa crus-galli) damage score, application post-emergence: 5
  SETFA (Setaria faberi) damage score, application post-emergence: 5
  ZEAMX (Zea mays) damage score, application post-emergence: 3

## CC1=C(Cl)C(=O)N(c2cc(C)on2)C1O (stereo not drawn) [A4]
[1]
  Pre-emergence herbicidal damage score, ABUTH: 5
  Pre-emergence herbicidal damage score, ALOMY: 3
  Pre-emergence herbicidal damage score, AMARE: 5
  Pre-emergence herbicidal damage score, ECHCG: 4
  Pre-emergence herbicidal damage score, SETFA: 5
  Pre-emergence herbicidal damage score, ZEAMX: 2
[2]
  ABUTH (Abutilon theophrasti) damage score, application post-emergence: 5
  ALOMY (Alopecurus myosuroides) damage score, application post-emergence: 4
  AMARE (Amaranthus retroflexus) damage score, application post-emergence: 5
  ECHCG (Echinochloa crus-galli) damage score, application post-emergence: 5
  SETFA (Setaria faberi) damage score, application post-emergence: 5
  ZEAMX (Zea mays) damage score, application post-emergence: 3

## CC1=C(Br)C(=O)N(c2cc(C(F)(F)F)on2)C1O (stereo not drawn) [A6]
[1]
  Pre-emergence herbicidal damage score, ABUTH: 0
  Pre-emergence herbicidal damage score, ALOMY: 1
  Pre-emergence herbicidal damage score, AMARE: 0
  Pre-emergence herbicidal damage score, ECHCG: 1
  Pre-emergence herbicidal damage score, SETFA: 1
  Pre-emergence herbicidal damage score, ZEAMX: 0
[2]
  ABUTH (Abutilon theophrasti) damage score, application post-emergence: 4
  ALOMY (Alopecurus myosuroides) damage score, application post-emergence: 2
  AMARE (Amaranthus retroflexus) damage score, application post-emergence: 4
  ECHCG (Echinochloa crus-galli) damage score, application post-emergence: 3
  SETFA (Setaria faberi) damage score, application post-emergence: 2
  ZEAMX (Zea mays) damage score, application post-emergence: 0

## COCC(C)(C)c1cc(N2C(=O)C(Cl)=C(C)C2O)no1 (stereo not drawn) [A7]
[1]
  Pre-emergence herbicidal damage score, ABUTH: 5
  Pre-emergence herbicidal damage score, ALOMY: 3
  Pre-emergence herbicidal damage score, AMARE: 5
  Pre-emergence herbicidal damage score, ECHCG: 4
  Pre-emergence herbicidal damage score, SETFA: 4
  Pre-emergence herbicidal damage score, ZEAMX: 2
[2]
  ABUTH (Abutilon theophrasti) damage score, application post-emergence: 5
  ALOMY (Alopecurus myosuroides) damage score, application post-emergence: 5
  AMARE (Amaranthus retroflexus) damage score, application post-emergence: 4
  ECHCG (Echinochloa crus-galli) damage score, application post-emergence: 5
  SETFA (Setaria faberi) damage score, application post-emergence: 5
  ZEAMX (Zea mays) damage score, application post-emergence: 5

## COCC(C)(C)c1cc(N2C(=O)C(Br)=C(C)C2O)no1 (stereo not drawn) [A8]
[1]
  Pre-emergence herbicidal damage score, ABUTH: 5
  Pre-emergence herbicidal damage score, ALOMY: 3
  Pre-emergence herbicidal damage score, AMARE: 5
  Pre-emergence herbicidal damage score, ECHCG: 4
  Pre-emergence herbicidal damage score, SETFA: 4
  Pre-emergence herbicidal damage score, ZEAMX: 1
[2]
  ABUTH (Abutilon theophrasti) damage score, application post-emergence: 5
  ALOMY (Alopecurus myosuroides) damage score, application post-emergence: 5
  AMARE (Amaranthus retroflexus) damage score, application post-emergence: 3
  ECHCG (Echinochloa crus-galli) damage score, application post-emergence: 5
  SETFA (Setaria faberi) damage score, application post-emergence: 5
  ZEAMX (Zea mays) damage score, application post-emergence: 3

## CC1=C(Cl)C(=O)N(c2cc(C(C)(C)C)on2)[C@H]1O [A9]
[2]
  ABUTH (Abutilon theophrasti) damage score, application post-emergence: 5
  ALOMY (Alopecurus myosuroides) damage score, application post-emergence: 4
  AMARE (Amaranthus retroflexus) damage score, application post-emergence: 5
  ECHCG (Echinochloa crus-galli) damage score, application post-emergence: 5
  SETFA (Setaria faberi) damage score, application post-emergence: 5
  ZEAMX (Zea mays) damage score, application post-emergence: 5

## CC1=C(Cl)C(=O)N(c2cc(C(C)(C)C)on2)[C@H]1O [A10]
[2]
  AMARE (Amaranthus retroflexus) damage score, application post-emergence: 5
  ECHCG (Echinochloa crus-galli) damage score, application post-emergence: 5
  SETFA (Setaria faberi) damage score, application post-emergence: 5

## CCC1=C(I)C(=O)N(c2cc(C(C)(C)C)on2)C1O (stereo not drawn) [A13]
[1]
  Pre-emergence herbicidal damage score, ABUTH: 3
  Pre-emergence herbicidal damage score, ALOMY: 3
  Pre-emergence herbicidal damage score, AMARE: 5
  Pre-emergence herbicidal damage score, ECHCG: 3
  Pre-emergence herbicidal damage score, SETFA: 3
  Pre-emergence herbicidal damage score, ZEAMX: 1
[2]
  ABUTH (Abutilon theophrasti) damage score, application post-emergence: 5
  ALOMY (Alopecurus myosuroides) damage score, application post-emergence: 5
  AMARE (Amaranthus retroflexus) damage score, application post-emergence: 5
  ECHCG (Echinochloa crus-galli) damage score, application post-emergence: 5
  SETFA (Setaria faberi) damage score, application post-emergence: 5
  ZEAMX (Zea mays) damage score, application post-emergence: 2

## CCC1=C(Br)C(=O)N(c2cc(C(C)(C)C)on2)C1O (stereo not drawn) [A14]
[1]
  Pre-emergence herbicidal damage score, ABUTH: 5
  Pre-emergence herbicidal damage score, ALOMY: 3
  Pre-emergence herbicidal damage score, AMARE: 5
  Pre-emergence herbicidal damage score, ECHCG: 4
  Pre-emergence herbicidal damage score, SETFA: 5
  Pre-emergence herbicidal damage score, ZEAMX: 2
[2]
  ABUTH (Abutilon theophrasti) damage score, application post-emergence: 5
  ALOMY (Alopecurus myosuroides) damage score, application post-emergence: 5
  AMARE (Amaranthus retroflexus) damage score, application post-emergence: 4
  ECHCG (Echinochloa crus-galli) damage score, application post-emergence: 5
  SETFA (Setaria faberi) damage score, application post-emergence: 5
  ZEAMX (Zea mays) damage score, application post-emergence: 4

## CC(C)(C)c1cc(N2C(=O)C(Cl)=C(C3CC3)C2O)no1 (stereo not drawn) [A15]
[1]
  Pre-emergence herbicidal damage score, ABUTH: 5
  Pre-emergence herbicidal damage score, ALOMY: 2
  Pre-emergence herbicidal damage score, AMARE: 5
  Pre-emergence herbicidal damage score, ECHCG: 4
  Pre-emergence herbicidal damage score, SETFA: 3
  Pre-emergence herbicidal damage score, ZEAMX: 2
[2]
  ABUTH (Abutilon theophrasti) damage score, application post-emergence: 5
  ALOMY (Alopecurus myosuroides) damage score, application post-emergence: 4
  AMARE (Amaranthus retroflexus) damage score, application post-emergence: 5
  ECHCG (Echinochloa crus-galli) damage score, application post-emergence: 5
  SETFA (Setaria faberi) damage score, application post-emergence: 5
  ZEAMX (Zea mays) damage score, application post-emergence: 3

## CCC1=C(Cl)C(=O)N(c2cc(C(C)(C)C)on2)C1O (stereo not drawn) [A16]
[1]
  Pre-emergence herbicidal damage score, ABUTH: 5
  Pre-emergence herbicidal damage score, ALOMY: 4
  Pre-emergence herbicidal damage score, AMARE: 5
  Pre-emergence herbicidal damage score, ECHCG: 5
  Pre-emergence herbicidal damage score, SETFA: 5
  Pre-emergence herbicidal damage score, ZEAMX: 3
[2]
  ABUTH (Abutilon theophrasti) damage score, application post-emergence: 5
  ALOMY (Alopecurus myosuroides) damage score, application post-emergence: 5
  AMARE (Amaranthus retroflexus) damage score, application post-emergence: 5
  ECHCG (Echinochloa crus-galli) damage score, application post-emergence: 5
  SETFA (Setaria faberi) damage score, application post-emergence: 5
  ZEAMX (Zea mays) damage score, application post-emergence: 5

## CC1=C(I)C(=O)N(c2cc(C(C)(C)C)on2)[C@H]1O [A17]
[1]
  Pre-emergence herbicidal damage score, ABUTH: 3
  Pre-emergence herbicidal damage score, ALOMY: 2
  Pre-emergence herbicidal damage score, AMARE: 5
  Pre-emergence herbicidal damage score, ECHCG: 5
  Pre-emergence herbicidal damage score, SETFA: 3
  Pre-emergence herbicidal damage score, ZEAMX: 2
[2]
  ABUTH (Abutilon theophrasti) damage score, application post-emergence: 5
  ALOMY (Alopecurus myosuroides) damage score, application post-emergence: 5
  AMARE (Amaranthus retroflexus) damage score, application post-emergence: 5
  ECHCG (Echinochloa crus-galli) damage score, application post-emergence: 5
  SETFA (Setaria faberi) damage score, application post-emergence: 5
  ZEAMX (Zea mays) damage score, application post-emergence: 4

## CC(C)C1=C(Cl)C(=O)N(c2cc(C(C)(C)C)on2)C1O (stereo not drawn) [A18]
[1]
  Pre-emergence herbicidal damage score, ABUTH: 4
  Pre-emergence herbicidal damage score, ALOMY: 4
  Pre-emergence herbicidal damage score, AMARE: 1
  Pre-emergence herbicidal damage score, ECHCG: 2
  Pre-emergence herbicidal damage score, SETFA: 3
  Pre-emergence herbicidal damage score, ZEAMX: 1
[2]
  ABUTH (Abutilon theophrasti) damage score, application post-emergence: 5
  ALOMY (Alopecurus myosuroides) damage score, application post-emergence: 5
  AMARE (Amaranthus retroflexus) damage score, application post-emergence: 4
  ECHCG (Echinochloa crus-galli) damage score, application post-emergence: 5
  SETFA (Setaria faberi) damage score, application post-emergence: 5
  ZEAMX (Zea mays) damage score, application post-emergence: 3

## CCCC1=C(Cl)C(=O)N(c2cc(C(C)(C)C)on2)C1O (stereo not drawn) [A27]
[1]
  Pre-emergence herbicidal damage score, ABUTH: 5
  Pre-emergence herbicidal damage score, ALOMY: 4
  Pre-emergence herbicidal damage score, AMARE: 5
  Pre-emergence herbicidal damage score, ECHCG: 5
  Pre-emergence herbicidal damage score, SETFA: 4
  Pre-emergence herbicidal damage score, ZEAMX: 4
[2]
  ABUTH (Abutilon theophrasti) damage score, application post-emergence: 5
  ALOMY (Alopecurus myosuroides) damage score, application post-emergence: 5
  AMARE (Amaranthus retroflexus) damage score, application post-emergence: 5
  ECHCG (Echinochloa crus-galli) damage score, application post-emergence: 5
  SETFA (Setaria faberi) damage score, application post-emergence: 5
  ZEAMX (Zea mays) damage score, application post-emergence: 4

Source: patent US9936701B2, “Herbicidal compounds” (Syngenta Participations AG, priority 2013, dated 2018)
